Assay results published in patent US8791132B2, “Compounds and methods for treatment of hypertension” (Medivation Technologies, Inc., priority 2011, dated 2014).

Tests used:
[1] = test system: conscious New Zealand White rabbits; experiment: Blood pressure in conscious rabbits; type: in vivo, rabbit; settings: i.v. cumulative dose-response study, Compound 3b maximum at 10 mg/kg
Protocol: Methods: Four adult New Zealand White rabbits of both sexes were chosen for these studies. […] To unveil peripheral effects of Compound 3b, two sets of acute studies were conducted in rabbits. […] A single intravenous bolus dose at 3 mg/kg was given and a time-course study was conducted in the second set of studies. Systolic, […], mean and […] blood pressures were recorded in both the studies. […] In a separate set of studies, Clonidine (positive control) was tested where all experimental procedures including dose-regimen were identical to that of the studies with […].

[2] = test system: SH-SY5Y cells over-expressing α-syn; experiment: Cell viability (MTS reduction) in SH-SY5Y cells over-expressing α-synuclein; type: cell-based; settings: Homo sapiens, 336 h, α-syn over-expression (−dox), compounds at 10 nM, +dox control = 100, 14 days, read-out: Relative cell viability protection
Protocol: Cell Culture. SH-SY5Y cells stably transfected with a doxycyline-inducible wild-type α-synuclein (α-syn) gene along with control SH-SY5Y cells over-expressing the β-galactosidase (β-gal) gene (a gift from L. Stefanis, Division of Basic Neurosciences, Biomedical Research Foundation of the Academy of Athens, Athens, Greece) are cultured as described by Vekrellis et al. (Vekrellis K, Xilouri M, Emmanouilidou E, Stefanis L. (2009). Inducible over-expression of α-syn in human neuronal cells leads to caspase-dependent non-apoptotic death. J Neurochem 109, 1348-1362). In accordance with this method, cells are cultured and maintained in RPMI 1640, 10% fetal bovine serum supplemented with 250 μg/mL G418 and 50 μg/mL Hygromycin B. Expression of α-syn is switched off in stock cultures with doxycycline (2 μg/mL). For experimental procedures, cells are plated at (4−8×10^4 cells/cm^2) and differentiated in absence of doxycycline and in the presence of 20 μM all-trans retinoic acid (RA) (Sigma, St Louis, Mo., USA).
Viability Assay: Cells are cultured in 96-well plates. After 24 h, cells are treated with RA and Compounds of Invention at 0.1 and 10 nM in the absence of doxycyline. Culture medium with RA and drugs is fully replaced after 7 days. Cell viability is measured by the release of lactate dehydrogenase (LDH) from necrotic cells into the culture medium and by measuring the capacity of cells to metabolize MTS tetrazolium (MTS) after 14 days in culture. LDH leakage is assessed according to the Cytotoxicity Detection KitPlus (Roche, Mannheim, Germany) and MTS reduction is assessed by the CellTiter 96® AQueous One Solution Cell Proliferation assay (Promega Corporation, Madison, Wis., USA).
Assay results for the experiments with α-syn over-expression are presented as the MTS reduction capacity (cell viability) of control cells (+dox), cells over-expressing α-syn (−dox), and cells over-expressing α-syn incubated with Compounds of the Invention at 0.1 nM (FIG. 18A) or 10 nM (FIG. 18B).

SH-SY5Y cells = experiment: Cell viability (MTS reduction) in 4-Br-A23187-treated SH-SY5Y cells; type: cell-based; settings: MTS reduction capacity
Protocol: After 24 h, cells were depleted from FBS and kept in culture for 24 h before the experiment. Cells were then treated with 4-Br-A23187 (2 μM), hydrogen peroxide (300 μM) or the mitochondrial toxin rotenone (25 μM) in the presence of vehicle or Compound of the Invention for 24 h. Cell death was determined by measurements of LDH release according to the Cytotoxicity Detection KitPlus (Roche, Mannheim, Germany). Cell viability was determined by measuring the capacity of cells to metabolize MTS tetrazolium (MTS) according to the Cytotoxicity Detection KitPlus (Roche, Mannheim, Germany) and MTS reduction is assessed by the CellTiter 96® AQueous One Solution Cell Proliferation assay (Promega Corporation, Madison, Wis., USA). Compounds were screened at 10 nM, using DMSO as vehicle. Assay results for the experiments with hydrogen peroxide are presented as the LDH release (cell death) of untreated cells (control), hydrogen peroxide-treated cells (vehicle), and co-incubation of hydrogen peroxide with Compounds of the Invention treated cells normalized to the vehicle (FIG. 17A). This assay assesses the ability of the test compounds to protect against cell death that is mediated by mitochondrial dysfunction. In the assay, the calcium ionophore 4-Br-A23187 is used to challenge the cells, causing calcium levels to rise in mitochondria, which leads to depolarization and cell death. Test compounds are assessed for their ability to prevent cell death in response to challenge with 4-Br-A23187.

[3] = target: T1, human recombinant adrenergic α2B receptor (Homo sapiens, UniProt P18089); experiment: Radioligand binding, adrenergic α2B ([3H]Rauwolscine); settings: [3H]Rauwolscine, repeat assays, each datapoint shown
T1 construct: expressed in transfected cells; host or cells: CHO-K1
T1 sequence (P18089 1-450): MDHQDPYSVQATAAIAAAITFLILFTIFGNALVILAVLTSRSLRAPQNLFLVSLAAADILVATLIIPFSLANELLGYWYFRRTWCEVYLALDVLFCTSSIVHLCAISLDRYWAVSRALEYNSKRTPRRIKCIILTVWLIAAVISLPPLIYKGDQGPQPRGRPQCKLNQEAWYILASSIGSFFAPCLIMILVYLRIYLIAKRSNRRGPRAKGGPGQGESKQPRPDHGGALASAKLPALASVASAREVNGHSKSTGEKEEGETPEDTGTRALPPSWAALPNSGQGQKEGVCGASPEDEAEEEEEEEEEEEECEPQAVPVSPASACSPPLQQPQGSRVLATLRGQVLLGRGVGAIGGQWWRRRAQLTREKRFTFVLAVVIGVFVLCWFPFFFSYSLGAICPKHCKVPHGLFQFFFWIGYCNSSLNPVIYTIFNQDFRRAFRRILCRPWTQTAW
Method in brief: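 Assay used CHO-K1-expressed human α2B receptor in Tris-HCl pH 7.4 buffer with MgCl2, EDTA and BSA; 60 min incubation at 25 °C.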

[4] = target: T2, rat adrenergic α1B receptor (Rattus norvegicus, UniProt P15823); experiment: Radioligand binding, adrenergic α1B ([3H]Prazosin); settings: compound at 0.1 μM, [3H]Prazosin, repeat assays, each datapoint shown; for Percentage inhibition of ligand binding, Adrenergic α1B: 0.1 µM
T2 construct: rat adrenergic α1B receptor obtained from Wistar Rat liver; from tissue; host or cells: Wistar rat liver
T2 sequence (P15823 1-515): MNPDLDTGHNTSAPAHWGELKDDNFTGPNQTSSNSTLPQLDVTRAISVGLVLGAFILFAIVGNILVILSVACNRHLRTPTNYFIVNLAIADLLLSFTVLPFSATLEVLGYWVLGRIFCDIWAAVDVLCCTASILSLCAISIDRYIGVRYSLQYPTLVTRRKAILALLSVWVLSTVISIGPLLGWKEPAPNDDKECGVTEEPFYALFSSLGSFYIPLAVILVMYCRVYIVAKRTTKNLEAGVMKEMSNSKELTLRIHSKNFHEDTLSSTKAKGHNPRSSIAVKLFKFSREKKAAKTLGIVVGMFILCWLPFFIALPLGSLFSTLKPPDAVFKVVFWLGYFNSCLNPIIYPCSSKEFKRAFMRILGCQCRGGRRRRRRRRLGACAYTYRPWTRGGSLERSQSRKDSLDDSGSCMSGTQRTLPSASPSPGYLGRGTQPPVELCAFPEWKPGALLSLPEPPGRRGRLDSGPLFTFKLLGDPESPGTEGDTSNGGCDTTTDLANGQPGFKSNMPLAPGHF
Method in brief: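 Specific binding, taken as total minus that remaining with 10 μM phentolamine, is measured after filtration and counting. Rat liver receptor preparation and 0.25 nM [3H]prazosin are incubated with compound in 50 mM Tris-HCl (pH 7.4, 0.5 mM EDTA) at 25° C for 60 min. Activity is reported as percent inhibition.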

[5] = target: T3, human recombinant adrenergic α1D receptor (Homo sapiens, UniProt P25100); experiment: Radioligand binding, adrenergic α1D ([3H]Prazosin); settings: compound at 0.1 μM; [3H]Prazosin; repeat assays, each datapoint shown; read-out: Percentage inhibition of ligand binding, Adrenergic α1D
T3 construct: expressed in transfected cells; host or cells: HEK-293
T3 sequence (P25100 1-572): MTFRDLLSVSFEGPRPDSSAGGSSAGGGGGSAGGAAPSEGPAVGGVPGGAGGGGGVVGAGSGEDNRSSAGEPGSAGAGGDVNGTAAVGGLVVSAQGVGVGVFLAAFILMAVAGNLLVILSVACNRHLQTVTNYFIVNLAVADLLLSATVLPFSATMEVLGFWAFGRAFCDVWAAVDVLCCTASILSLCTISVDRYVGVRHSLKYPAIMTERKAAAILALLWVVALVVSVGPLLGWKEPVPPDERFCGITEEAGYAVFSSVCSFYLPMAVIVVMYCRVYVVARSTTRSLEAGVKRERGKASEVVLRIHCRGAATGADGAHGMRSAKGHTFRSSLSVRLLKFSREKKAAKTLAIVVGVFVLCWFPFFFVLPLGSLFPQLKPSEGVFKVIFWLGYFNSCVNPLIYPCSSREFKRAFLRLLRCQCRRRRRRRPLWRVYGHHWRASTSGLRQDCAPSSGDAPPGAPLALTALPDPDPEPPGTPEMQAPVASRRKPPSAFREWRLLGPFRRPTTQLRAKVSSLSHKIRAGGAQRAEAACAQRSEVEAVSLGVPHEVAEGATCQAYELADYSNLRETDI
Protocol: Compounds were incubated with 0.6 nM [3H]Prazosin for 60 min at 25° C. Non-specific binding was estimated in the presence of 10 μM phentolamine. Receptor proteins were filtered and washed, the filters were then counted to determine [3H]Prazosin specifically bound. […] Biochemical assay results are presented as the percent inhibition of specific binding in Table B1.

[6] = target: T4, human recombinant adrenergic α2A receptor (Homo sapiens, UniProt P08913); experiment: Radioligand binding, adrenergic α2A ([3H]MK-912); settings: compound at 0.1 μM; [3H]MK-912; repeat assays, each datapoint shown
T4 construct: expressed in transfected cells; host or cells: insect Sf9 cells
T4 sequence (P08913 1-465): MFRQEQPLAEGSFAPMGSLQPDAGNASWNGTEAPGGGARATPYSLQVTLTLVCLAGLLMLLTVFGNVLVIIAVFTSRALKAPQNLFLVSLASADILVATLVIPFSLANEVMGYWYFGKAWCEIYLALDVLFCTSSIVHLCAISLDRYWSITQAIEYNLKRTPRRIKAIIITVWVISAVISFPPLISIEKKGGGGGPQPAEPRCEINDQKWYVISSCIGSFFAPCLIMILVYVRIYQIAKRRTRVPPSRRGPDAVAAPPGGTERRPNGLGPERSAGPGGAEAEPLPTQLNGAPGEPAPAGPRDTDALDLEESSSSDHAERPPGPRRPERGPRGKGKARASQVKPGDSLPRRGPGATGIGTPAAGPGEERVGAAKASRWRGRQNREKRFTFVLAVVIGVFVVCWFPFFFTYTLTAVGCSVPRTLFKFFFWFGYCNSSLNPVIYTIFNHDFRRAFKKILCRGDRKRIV
Method in brief: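 Displacement of 1 nM [3H]MK-912 from receptor produced in insect Sf9 cells was measured after 60 min at 25 °C. Readout: percent inhibition of specific binding.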

[7] = 4-Br-A23187 2 μM, 24 h, compounds at 10 nM

Structure (SMILES): Clc1cccc(Cl)c1N=C1NCCN1 [Clonidine, clonidine, reference compound]
- maximum arterial blood pressure drop [1]: −6 mmHg

Structure (SMILES): Cc1ccc2c(c1)c1c(n2CC(O)c2ccncc2)CCN(C)C1 (stereo not drawn) [Cpd3b]
- viability at 0.01 µM [2]: 78.3%

Structure (SMILES): CN1CCc2c(c3cc(Cl)ccc3n2CC(O)c2ccncc2)C1 (stereo not drawn) [Cpd4a]
- viability at 0.01 µM [2]: 77.5%

Structure (SMILES): Cc1ccc2c(c1)c1c(n2CC(C)(O)c2cccnc2)CCN(C)C1 (stereo not drawn) [Cpd5b]
- viability at 0.01 µM [2]: 85.3%

Structure (SMILES): Cc1ccc2c(c1)c1c(n2CC(O)c2ccncc2)CCNC1 (stereo not drawn) [Cpd39a]
- viability at 0.01 µM [2]: 80.8%

Structure (SMILES): N#CC(C#N)=NNc1ccc(OC(F)(F)F)cc1 [FCCP, p-trifluoromethoxyphenylhydrazone, reference compound]
- Relative cell viability protection (SH-SY5Y cells; FCCP at 10 μM for 30 min as a control): 0.1035

Structure (SMILES): CN1CCc2c(c3cc(Cl)ccc3n2CC(O)c2ccncc2)C1 (stereo not drawn) [compound 4]
- inhibition at 0.1 µM ([3]; compound at 0.1 μM, read-out: Percentage inhibition of ligand binding, Adrenergic α2B): 101%
- Percentage inhibition of ligand binding, Adrenergic α1B [4]: 60%
- inhibition at 0.1 µM ([4]; read-out: Percentage inhibition of ligand binding, Adrenergic α1B): 51%
- inhibition at 0.1 µM [5]: 12%
- Relative cell viability protection (SH-SY5Y cells; [7]): 0.3463

Structure (SMILES): Cc1ccc2c(c1)c1c(n2CC(O)c2ccncc2)CCNC1 (stereo not drawn) [compound 39, 2-(8-methyl-1,2,3,4-tetrahydro-pyrido[4,3-b]indol-5-yl)-1-pyridin-4-yl-ethanol]
- Percentage inhibition of ligand binding, Adrenergic α2B ([3]; compound at 0.03 μM, 0.03 µM): 89%
- Percentage inhibition of ligand binding, Adrenergic α2A [6]: 1%
- Percentage inhibition of ligand binding, Adrenergic α1B [4]: 25%
- Relative cell viability protection (SH-SY5Y cells; [7]): 0.36
